# Measured values: patent US20240216359A1, “TREATMENT OF NEUROLOGICAL DISORDERS” (GMP BIOTECHNOLOGY LIMITED, priority 2021, published 2024)
# Counter-ions that a name gives are not always drawn. Like-named read-outs stand apart in the source and are kept apart here.
# Key:
# [1] = 25° C.; cited from earlier work
# [2] = Pilot double-blind crossover study in subjects with erectile dysfunction principally of psychogenic origin; assay type: in vivo, human
# Source text: The primary efficacy parameter was each subject's assessment of the quality of the erection (graded on a 4-point scale). Secondary endpoints included frequency of erection, time from dosing to erection, duration of erection, and efficacy index (EI) for subjects achieving erections. Safety was primarily assessed via adverse events but cardiovascular effects were also investigated by monitoring blood pressure, heart rates, and percent oxygen saturation, prior to and following dosing. The integrity of the nasal mucosa of both nostrils was also evaluated prior to dosing, in the event of nasal symptoms, and at the end of each treatment visit.
# Subjects made a total of six visits to the site, an initial screening and qualification visit, three treatment visits in Part 1, and two treatment visits in Part 2. Eligible subjects were randomized to a treatment sequence for Part I after the initial screening visit. Approximately 2 months later, subjects were randomized to a treatment sequence for Part 2.
# At each treatment visit, a single dose of study treatment was administered. Efficacy was measured by means of ED questionnaires, which were completed by each subject. Following dosing, all subjects viewed sexually explicit videotapes and magazines for approximately 60 minutes. At the end of this period, the questionnaires were completed and patients were asked to rate the quality of the erection using a 4-point scale. The primary efficacy variable was the subject's global rating of erection, measured on a scale of 1 to 4: 1=increase in size but not hard; 2=hard, but not hard enough for vaginal penetration; 3=hard enough for vaginal penetration (but not completely hard); 4=completely hard.
# Safety was measured by monitoring the subjects' blood pressure, heart rate and percent oxygen saturation (by pulse oximetry) before and after dosing (approximately 90 minutes after dosing commenced). In addition, the integrity of the subject's nasal mucosa was assessed prior to, and at the end of treatment. Information on adverse events was collected throughout the period of the study.
# Drugs, Doses, and Regimens: At each treatment visit, subjects received one dose of study treatment.
# [3] = adverse event rate, comparator; cited from earlier work
# [4] = cited from earlier work
smiles,measurement,setting,value
O=C(O)CC(O)(CC(=O)O)C(=O)O [Citric Acid],pKa1,[1],3.128
same,pKa2,[1],4.761
same,pKa3,[1],6.396
CCCc1nn(C)c2c(=O)[nH]c(-c3cc(S(=O)(=O)N4CCN(C)CC4)ccc3OCC)nc12 [Viagra],difference in effectiveness in initiating erections between treatments and placebo,"[2]; apomorphine HCl 0.25, 0.50, 1.0 mg, Viagra 50 mg",no statistically significant difference
same,serious adverse events,"[2]; human, in vivo",no serious adverse events
same,subjects who achieved a satisfactory erection (as reported by the subject),[2]; single dose,around 30%
same,efficacy by Global Self Assessment Scores (grade 3 or 4),"[2]; single dose, apomorphine 0.25-1.0 mg intranasal, Viagra 50 mg",67%
CN1CC(=O)N2[C@H](c3ccc4c(c3)OCO4)c3[nH]c4ccccc4c3C[C@@H]2C1=O [Cialis],Dizziness,[3],6.2%
same,Dyspepsia,[3],7.7%
same,Flushing,[3],4.2%
same,Headache,[3],13.9%
CN1CCc2cccc3c2[C@H]1Cc1ccc(O)c(O)c1-3 [Apomorphine Hydrochloride],volume of water in which one gram dissolves,[4]; water at 80° C.,about 20 ml
same,volume of water in which one gram dissolves,[4]; water,50 mL
